According to ChEMBL document CHEMBL1143662 (Bioorg Med Chem, 2007):

Columns and labels:
[1] = biological target: T1, Melatonin receptor type 1A (Homo sapiens, UniProt P48039); experiment: Displacement of 2-[125I]iodomelatonin from human cloned MT1 receptor expressed in […] cells; format: cell-based
[2] = biological target: T1, Melatonin receptor type 1A; experiment: Intrinsic activity at human cloned MT1 receptor expressed in […] cells by [35S]GTP-gamma-S binding assay relative to melatonin; format: functional, cell-based
[3] = biological target: T2, Melatonin receptor type 1B (Homo sapiens, UniProt P49286); experiment: Displacement of 2-[125I]iodomelatonin from human cloned MT2 receptor expressed in […] cells; format: cell-based
T2 sequence (P49286 whole entry): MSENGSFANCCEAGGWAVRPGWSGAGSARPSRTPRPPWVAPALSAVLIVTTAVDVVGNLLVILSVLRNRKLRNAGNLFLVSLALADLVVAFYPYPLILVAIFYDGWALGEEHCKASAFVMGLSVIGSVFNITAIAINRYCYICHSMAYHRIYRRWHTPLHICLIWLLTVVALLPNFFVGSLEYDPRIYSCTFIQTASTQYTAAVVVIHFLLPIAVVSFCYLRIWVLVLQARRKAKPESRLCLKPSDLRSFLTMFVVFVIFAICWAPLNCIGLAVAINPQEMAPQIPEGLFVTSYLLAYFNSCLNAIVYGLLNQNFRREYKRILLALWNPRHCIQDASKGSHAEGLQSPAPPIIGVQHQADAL

[4] = biological target: T3, Melatonin receptor type 1B (Homo sapiens) (UniProt P49286); experiment: Intrinsic activity at human cloned MT2 receptor expressed in […] cells by [35S]GTP-gamma-S binding assay relative to melatonin; format: functional, cell-based
T3 sequence (whole entry): T2 sequence (P49286 whole entry)

T1 sequence (P48039 whole entry): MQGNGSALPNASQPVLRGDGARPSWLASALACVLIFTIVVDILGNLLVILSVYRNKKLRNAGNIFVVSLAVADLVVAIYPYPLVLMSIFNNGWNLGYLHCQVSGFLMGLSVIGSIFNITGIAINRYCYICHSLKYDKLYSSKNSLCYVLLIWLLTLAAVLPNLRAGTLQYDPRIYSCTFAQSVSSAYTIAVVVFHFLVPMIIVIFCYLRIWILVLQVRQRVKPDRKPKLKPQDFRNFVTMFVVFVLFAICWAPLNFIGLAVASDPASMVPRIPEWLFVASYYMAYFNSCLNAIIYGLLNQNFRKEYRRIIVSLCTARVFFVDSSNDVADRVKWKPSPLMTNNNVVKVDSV

SMILES | Ki [1] | Intrinsic activity [2] | Ki [3] | Intrinsic activity [4]
COc1ccc2[nH]c(C(=O)OCCCCCCCOC(=O)c3[nH]c4ccc(OC)cc4c3CCNC(C)=O)c(CCNC(C)=O)c2c1 | 215 nM | 0.35 | 65 nM | 0.08
COc1ccc2[nH]cc(CCNC(=O)CCCCCC(=O)NCCc3c[nH]c4ccc(OC)cc34)c2c1 | 6470 nM | 0.35 | 7290 nM | 0.26
COc1ccc2[nH]c(C(=O)OCCCCCCCCCOC(=O)c3ccccc3)c(CCNC(C)=O)c2c1 | 83 nM | 0.75 | 20 nM | 0.38
COc1ccc2[nH]c(C(=O)OCCCCCCCCOC(=O)c3[nH]c4ccc(OC)cc4c3CCNC(C)=O)c(CCNC(C)=O)c2c1 | 7.91 nM | 1 | 7.92 nM | 0.9
COc1ccc2[nH]c(C(=O)OCCCCCCCCCCCCOC(=O)c3[nH]c4ccc(OC)cc4c3CCNC(C)=O)c(CCNC(C)=O)c2c1 | 25.4 nM | 0.72 | 44 nM | 0.64
CCCCCOC(=O)c1[nH]c2ccc(OC)cc2c1CCNC(C)=O | 70.1 nM | 0.06 | 4.8 nM | 0.23
COc1ccc2[nH]cc(CCNC(=O)CCCCCCCCC(=O)NCCc3c[nH]c4ccc(OC)cc34)c2c1 | 387 nM | 0.81 | 573 nM | 0.79
COc1ccc2[nH]c(C(=O)OCCCCCOC(=O)c3[nH]c4ccc(OC)cc4c3CCNC(C)=O)c(CCNC(C)=O)c2c1 | 20.1 nM | 1 | 62.4 nM | 0.93
COc1ccc2[nH]c(C(=O)OCCCCCCCCCOC(=O)c3[nH]c4ccc(OC)cc4c3CCNC(C)=O)c(CCNC(C)=O)c2c1 | 59.8 nM | 0.33 | 7.75 nM | -0.17
COc1ccc2[nH]c(C(=O)OCCCCCCCCCCOC(=O)c3[nH]c4ccc(OC)cc4c3CCNC(C)=O)c(CCNC(C)=O)c2c1 | 24.2 nM | 0.79 | 15.4 nM | 0.65
COc1ccc2[nH]c(C(=O)OCCCOC(=O)c3[nH]c4ccc(OC)cc4c3CCNC(C)=O)c(CCNC(C)=O)c2c1 | 9.5 nM | 0.77 | 14.3 nM | 0.8
